Legend:
[1] = target: recombinant human ACC1 (rhACC1) (Homo sapiens (Human), UniProt Q13085); assay: recombinant hACC1 Transcreener ADP detection FP assay; format: biochemical; settings: 50 μM ATP, 120 min at 25° C.
Description: (§1) For example direct inhibition of ACC activity, for the compound of Formula (I) was determined using preparations of recombinant human ACC1 (rhACC1) and recombinant human ACC2 (rhACC2).
[1] Preparation of rhACC1. Two liters of SF9 cells, infected with recombinant baculovirus containing full length human ACC1 cDNA, were suspended in ice-cold lysis buffer (25 mM Tris, pH 7.5; 150 mM NaCl; 10% glycerol; 5 mM imidazole (EMD Bioscience; Gibbstown, N.J.); 2 mM TCEP (BioVectra; Charlottetown, Canada); Benzonase nuclease (10000 U/100 g cell paste; Novagen; Madison, Wis.); EDTA-free protease inhibitor cocktail (1 tab/50 mL; Roche Diagnostics; Mannheim, Germany). Cells were lysed by 3 cycles of freeze-thaw and centrifuged at 40,000×g for 40 minutes (4° C.). Supernatant was directly loaded onto a HisTrap FF crude column (GE Healthcare; Piscataway, N.J.) and eluted with an imidazole gradient up to 0.5 M over 20 column volumes (CV). ACC1-containing fractions were pooled and diluted 1:5 with 25 mM Tris, pH 7.5, 2 mM TCEP, 10% glycerol and direct loaded onto a CaptoQ (GE Healthcare) column and eluted with an NaCl gradient up to 1 M over 20 CV's. Phosphate groups were removed from purified ACC1 by incubation with lambda phosphatase (100 U/10 μM target protein; New England Biolabs; Beverly, Mass.) for 14 hours at 4° C.; okadaic acid was added (1 μM final concentration; Roche Diagnostics) to inhibit the phosphatase. Purified ACC1 was exchanged into 25 mM Tris, pH 7.5, 2 mM TCEP, 10% glycerol, 0.5 M NaCl by 6 hour dialysis at 4° C. Aliquots were prepared and frozen at −80° C.
[2] Measurement of rhACC1 inhibition. hACC1 was assayed in a Costar #3676 (Costar, Cambridge, Mass.) 384-well plate using the Transcreener ADP detection FP assay kit (Bellbrook Labs, Madison, Wis.) using the manufacturer's recommended conditions for a 50 μM ATP reaction. The final conditions for the assay were 50 mM HEPES, pH 7.2, 10 mM MgCl2, 7.5 mM tripotassium citrate, 2 mM DTT, 0.1 mg/mL BSA, 30 μM acetyl-CoA, 50 μM ATP, and 10 mM KHCO3 Typically, a 10 μl reaction was run for 120 min at 25° C., and 10 μl of Transcreener stop and detect buffer was added and the combination incubated at room temp for an additional 1 hour. The data was acquired on a Envision Fluorescence reader (PerkinElmer) using a 620 excitation Cy5 FP general dual mirror, 620 excitation Cy5 FP filter, 688 emission (S) and a 688 (P) emission filter.

[2] = target: recombinant human ACC2 (rhACC2) (Homo sapiens (Human), UniProt O00763); assay: recombinant hACC2 Transcreener ADP detection FP assay; format: biochemical; settings: 50 uM ATP, 50 min at 25° C.
recombinant human ACC2 (rhACC2), sequence (O00763 whole entry V2141I): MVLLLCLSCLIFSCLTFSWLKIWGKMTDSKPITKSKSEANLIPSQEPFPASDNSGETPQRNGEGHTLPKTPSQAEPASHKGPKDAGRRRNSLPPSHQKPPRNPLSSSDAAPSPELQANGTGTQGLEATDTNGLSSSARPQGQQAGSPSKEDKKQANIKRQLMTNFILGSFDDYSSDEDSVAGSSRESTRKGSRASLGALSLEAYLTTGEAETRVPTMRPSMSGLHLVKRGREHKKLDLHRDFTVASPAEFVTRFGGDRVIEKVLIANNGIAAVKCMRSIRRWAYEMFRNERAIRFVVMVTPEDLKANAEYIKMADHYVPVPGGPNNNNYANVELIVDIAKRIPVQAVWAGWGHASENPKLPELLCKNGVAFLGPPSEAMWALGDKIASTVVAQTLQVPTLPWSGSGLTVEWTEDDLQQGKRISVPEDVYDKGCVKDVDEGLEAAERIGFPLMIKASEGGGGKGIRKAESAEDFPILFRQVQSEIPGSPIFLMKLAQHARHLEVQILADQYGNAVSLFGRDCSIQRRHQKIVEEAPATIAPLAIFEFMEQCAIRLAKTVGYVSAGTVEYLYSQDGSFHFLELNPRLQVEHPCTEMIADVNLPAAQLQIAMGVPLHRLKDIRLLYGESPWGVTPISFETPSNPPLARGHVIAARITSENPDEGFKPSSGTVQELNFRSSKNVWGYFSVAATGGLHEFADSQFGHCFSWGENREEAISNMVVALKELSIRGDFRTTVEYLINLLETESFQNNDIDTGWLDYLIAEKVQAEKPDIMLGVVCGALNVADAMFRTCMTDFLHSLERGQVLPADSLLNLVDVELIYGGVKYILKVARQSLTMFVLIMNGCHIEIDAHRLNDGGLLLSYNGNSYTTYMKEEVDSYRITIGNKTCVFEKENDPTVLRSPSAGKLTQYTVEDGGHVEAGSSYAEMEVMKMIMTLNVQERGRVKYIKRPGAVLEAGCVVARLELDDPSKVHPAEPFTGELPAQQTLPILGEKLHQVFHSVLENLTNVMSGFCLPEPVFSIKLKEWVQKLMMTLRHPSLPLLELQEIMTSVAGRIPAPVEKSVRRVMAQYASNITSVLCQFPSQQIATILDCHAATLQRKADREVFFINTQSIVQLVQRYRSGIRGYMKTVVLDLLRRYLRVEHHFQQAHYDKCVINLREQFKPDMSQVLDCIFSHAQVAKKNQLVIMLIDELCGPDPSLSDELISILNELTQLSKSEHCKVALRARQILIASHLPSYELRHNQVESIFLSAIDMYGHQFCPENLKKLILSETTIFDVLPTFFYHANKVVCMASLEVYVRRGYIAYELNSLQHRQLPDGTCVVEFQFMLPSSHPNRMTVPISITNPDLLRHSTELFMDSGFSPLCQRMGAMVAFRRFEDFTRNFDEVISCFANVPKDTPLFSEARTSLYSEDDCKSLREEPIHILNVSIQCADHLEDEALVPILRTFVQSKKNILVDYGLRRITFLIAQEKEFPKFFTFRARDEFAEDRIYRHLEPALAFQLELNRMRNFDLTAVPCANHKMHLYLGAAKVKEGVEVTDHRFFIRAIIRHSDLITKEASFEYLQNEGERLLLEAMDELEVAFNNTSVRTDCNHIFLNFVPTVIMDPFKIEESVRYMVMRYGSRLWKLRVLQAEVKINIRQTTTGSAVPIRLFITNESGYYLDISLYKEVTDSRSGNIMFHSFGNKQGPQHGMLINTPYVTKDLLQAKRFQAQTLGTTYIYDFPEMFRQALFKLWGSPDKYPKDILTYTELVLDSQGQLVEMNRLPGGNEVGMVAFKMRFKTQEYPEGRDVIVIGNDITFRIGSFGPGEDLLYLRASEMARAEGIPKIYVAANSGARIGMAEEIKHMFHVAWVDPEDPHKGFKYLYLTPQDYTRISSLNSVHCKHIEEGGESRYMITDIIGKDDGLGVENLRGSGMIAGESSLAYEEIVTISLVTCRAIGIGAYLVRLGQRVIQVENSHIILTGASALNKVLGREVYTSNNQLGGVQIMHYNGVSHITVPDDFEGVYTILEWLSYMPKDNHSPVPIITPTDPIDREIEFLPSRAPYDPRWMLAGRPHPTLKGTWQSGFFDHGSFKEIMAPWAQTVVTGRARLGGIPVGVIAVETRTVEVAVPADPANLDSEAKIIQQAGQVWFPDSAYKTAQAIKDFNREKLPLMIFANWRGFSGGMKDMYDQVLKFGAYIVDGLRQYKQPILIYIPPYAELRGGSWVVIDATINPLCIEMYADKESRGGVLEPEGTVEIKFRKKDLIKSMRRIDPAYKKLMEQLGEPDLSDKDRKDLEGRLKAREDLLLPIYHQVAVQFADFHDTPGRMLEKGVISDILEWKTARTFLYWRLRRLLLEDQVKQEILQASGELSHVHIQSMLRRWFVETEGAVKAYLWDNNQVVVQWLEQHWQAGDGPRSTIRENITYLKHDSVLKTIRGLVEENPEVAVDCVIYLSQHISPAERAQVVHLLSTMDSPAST
Description: as §1
[3] Preparation of rhACC2. Human ACC2 inhibition was measured using purified recombinant human ACC2 (hrACC2). Briefly, a full length Cytomax clone of ACC2 was purchased from Cambridge Bioscience Limited and was sequenced and subcloned into PCDNA5 FRT TO-TOPO (Invitrogen, Carlsbad, Calif.). The ACC2 was expressed in CHO cells by tetracycline induction and harvested in 5 liters of DMEM/F12 with glutamine, biotin, hygromycin and blasticidin with 1 μg/mL tetracycline (Invitrogen, Carlsbad, Calif.). The conditioned medium containing ACC2 was then applied to a Softlink Soft Release Avidin column (Promega, Madison, Wis.) and eluted with 5 mM biotin. […] The purified ACC2 was dialyzed in 50 mM Tris, 200 mM NaCl, 4 mM DTT, 2 mM EDTA, and 5% glycerol. […] For measurement of ACC2 activity and assessment of ACC2 inhibition, test compounds were dissolved in DMSO and added to the rhACC2 enzyme as a 5× stock with a final DMSO concentration of 1%.
[4] Measurement of human ACC2 inhibition. hACC2 was assayed in a Costar #3676 (Costar, Cambridge, Mass.) 384-well plate using the Transcreener ADP detection FP assay kit (Bellbrook Labs, Madison, Wis.) using the manufacturer's recommended conditions for a 50 uM ATP reaction. The final conditions for the assay were 50 mM HEPES, pH 7.2, 5 mM MgCl2, 5 mM tripotassium citrate, 2 mM DTT, 0.1 mg/mL BSA, 30 μM acetyl-CoA, 50 μM ATP, and 8 mM KHCO3 Typically, a 10 μl reaction was run for 50 min at 25° C., and 10 μl of Transcreener stop and detect buffer was added and the combination incubated at room temp for an additional 1 hour. The data was acquired on an Envision Fluorescence reader (PerkinElmer) using a 620 excitation Cy5 FP general dual mirror, 620 excitation Cy5 FP filter, 688 emission (S) and a 688 (P) emission filter.

Row | SMILES | IC50 [1] [nM] | IC50 [2] [nM]
1 | CC(C)(C)n1cc2c(n1)C(=O)NC1(CCN(C(=O)c3ccc4c(N)nccc4c3)CC1)C2 [Example 101, 1-(1-aminoisoquinoline-6-carbonyl)-2′-tert-butyl-4′,6′-dihydrospiro[piperidine-4,5′-pyrazolo[3,4-c]pyridin]-7′(2′H)-one] | 160 | 26
2 | CN(C)c1nccc2ccc(C(=O)N3CCC4(CC3)Cc3cn(C(C)(C)C)nc3C(=O)N4)cc12 [Example 103, 2′-tert-butyl-1-(1-(dimethylamino)isoquinoline-7-carbonyl)-4′,6′-dihydrospiro[piperidine-4,5′-pyrazolo[3,4-c]pyridin]-7′(2′H)-one] | 73 | 8.9
3 | CC(C)(C)n1cc2c(n1)C(=O)NC1(CCN(C(=O)c3ccc4ccc(Cl)nc4c3)CC1)C2 [Example 104, 2′-tert-butyl-1-(2-chloroquinoline-7-carbonyl)-4′,6′-dihydrospiro[piperidine-4,5′-pyrazolo[3,4-c]pyridin]-7′(2′H)-one] | 89 | 16
4 | COCCNc1ccc2ccc(C(=O)N3CCC4(CC3)Cc3cn(C(C)(C)C)nc3C(=O)N4)cc2n1 [Example 111] | 27 | 3.3
5 | CC(C)(C)n1cc2c(n1)C(=O)NC1(CCN(C(=O)c3ccc4ccc(NC5COC5)nc4c3)CC1)C2 [Example 113] | 507 | 44
6 | Cc1n[nH]c2c(C)cc(C(=O)N3C4CCC3CC3(Cc5cn(C(C)(C)C)nc5C(=O)N3)C4)cc12 (centres unmarked) [Example 114] | 4820 | 612
7 | CC(C)(C)n1cc2c(n1)C(=O)NC1(CCN(C(=O)c3ccc4ccnc(NC5CC5)c4c3)CC1)C2 [Example 115] | 29 | 2.9
8 | CC(C)Nc1nccc2ccc(C(=O)N3CCC4(CC3)Cc3cn(C(C)(C)C)nc3C(=O)N4)cc12 [Example 116] | 20 | 4.7
9 | CCN(C)c1nccc2ccc(C(=O)N3CCC4(CC3)Cc3cn(C(C)(C)C)nc3C(=O)N4)cc12 [Example 117] | 332 | 54
10 | CC(C)(C)n1cc2c(n1)C(=O)NC1(CCN(C(=O)c3ccc4ccnc(NC5CCC5)c4c3)CC1)C2 [Example 118] | 17 | 2.7
11 | CCCNc1nccc2ccc(C(=O)N3CCC4(CC3)Cc3cn(C(C)(C)C)nc3C(=O)N4)cc12 [Example 119] | 24 | 2.5
12 | COCCNc1nccc2ccc(C(=O)N3CCC4(CC3)Cc3cn(C(C)(C)C)nc3C(=O)N4)cc12 [Example 120] | 47 | 6.1
13 | CCNc1nccc2ccc(C(=O)N3CCC4(CC3)Cc3cn(C(C)(C)C)nc3C(=O)N4)cc12 [Example 121] | 17 | 2.7
14 | CC(C)(C)n1cc2c(n1)C(=O)NC1(CCN(C(=O)c3ccc4ccnc(NC5COC5)c4c3)CC1)C2 [Example 122] | 494 | 77
15 | CC(C)(C)Nc1nccc2ccc(C(=O)N3CCC4(CC3)Cc3cn(C(C)(C)C)nc3C(=O)N4)cc12 [Example 123, 2′-(tert-butyl)-1-(1-(tert-butylamino)isoquinoline-7-carbonyl)-4′,6′-dihydrospiro[piperidine-4,5′-pyrazolo[3,4-c]pyridin]-7′(2′H)-one] | 78 | 6.3

Molecules with a lower IC50 [1], results first:

Row | IC50 [1] [nM] | IC50 [2] [nM] | SMILES
16 | 7.5 | 2.6 | CC(C)(C)n1cc2c(n1)C(=O)NC1(CCN(C(=O)c3ccc4ccc(NC5CC5)nc4c3)CC1)C2 [Example 106]
17 | 6.1 | 2.2 | CC(C)Nc1ccc2ccc(C(=O)N3CCC4(CC3)Cc3cn(C(C)(C)C)nc3C(=O)N4)cc2n1 [Example 107]
18 | 15 | 2.4 | CCN(C)c1ccc2ccc(C(=O)N3CCC4(CC3)Cc3cn(C(C)(C)C)nc3C(=O)N4)cc2n1 [Example 108]
19 | 3.4 | 1 | CC(C)(C)n1cc2c(n1)C(=O)NC1(CCN(C(=O)c3ccc4ccc(NC5CCC5)nc4c3)CC1)C2 [Example 109]
20 | 8.9 | 1.8 | CCNc1ccc2ccc(C(=O)N3CCC4(CC3)Cc3cn(C(C)(C)C)nc3C(=O)N4)cc2n1 [Example 112]
21 | 6.5 | 1.72 | CC(C)(C)n1cc2c(n1)C(=O)NC1(CCN(C(=O)c3ccc4ccc(NCC(F)(F)F)nc4c3)CC1)C2 [Example 124]
22 | 9 | 1.7 | CC(F)(F)CNc1ccc2ccc(C(=O)N3CCC4(CC3)Cc3cn(C(C)(C)C)nc3C(=O)N4)cc2n1 [Example 125]

From patent US8993586B2, “N1/N2-lactam acetyl-CoA carboxylase inhibitors” (Pfizer Inc., priority 2010, dated 2015)
